According to patent US20240350458A1, “14-3-3 PROTEIN MODULATORS AS ANTITUMOR AGENTS” (priority 2021, published 2024):
Entries after “also recorded” stand apart in the source; their conditions may differ.

Key:
[1] = system: FARAGE; experiment: MTT proliferation assay, B-cell lymphoma cell line; format: cell-based; conditions: 72 h of drug incubation
Method: (§1) All the above compounds were tested in vitro for their anticancer activity against a panel of eight B-cell lymphoma cell lines by MTT proliferation assay. The tested cell lines belonging to mantle cell lymphoma (MCL: REC1, Z138), activated B-cell diffuse large B-cell lymphoma (ABC-DLBCL: R11, HBL1, U2932, TMD8), germinal center B-cell diffuse large B-cell lymphoma (GCB-DLBCL: SU-DHL-10, FARAGE) subtypes. In overall, MCL cell lines present Cyclin D1 overexpression, while ABC- and GCB-DLBCL's proliferation is BCR and BCL6/HDACs driven, respectively. At the RNA level, all tested lymphoma cell lines were characterized by an overexpression of 14-3-3 zeta as reported for B-cell lymphomas resistant to chemotherapeutic regimen.

[2] = system: HBL1; experiment: MTT proliferation assay, B-cell lymphoma cell line; format: cell-based; conditions: HBL1, 72 h of drug incubation
Method: as §1

[3] = system: REC1; experiment: MTT proliferation assay, B-cell lymphoma cell line; format: cell-based; conditions: Homo sapiens; REC1, 72 h of drug incubation
Method: as §1

[4] = system: RI1; experiment: MTT proliferation assay, B-cell lymphoma cell line; format: cell-based; conditions: Ri-1; RI1, 72 h of drug incubation
Method: as §1

[5] = system: SUDHL10; experiment: MTT proliferation assay, B-cell lymphoma cell line; format: cell-based; conditions: Homo sapiens, SU-DHL10; SUDHL10, 72 h of drug incubation
Method: as §1

[6] = system: TMD8; experiment: MTT proliferation assay, B-cell lymphoma cell line; format: cell-based; conditions: Homo sapiens; TMD8, 72 h of drug incubation
Method: as §1

[7] = system: U2932; experiment: MTT proliferation assay, B-cell lymphoma cell line; format: cell-based; conditions: Homo sapiens; U2932, 72 h of drug incubation
Method: as §1

[8] = system: Z138; experiment: MTT proliferation assay, B-cell lymphoma cell line; format: cell-based; conditions: Homo sapiens, Z-138; Z138, 72 h of drug incubation
Method: as §1

[9] = system: eight B-cell lymphoma cell lines; experiment: MTT proliferation assay, panel of eight B-cell lymphoma cell lines; format: cell-based
Method: as §1

[10] = system: 14-3-3; experiment: DARTS in U937 cells; format: binding; conditions: 50 nM, 2 h, MS and western blot
Method: FIG. 4 represents DARTS experiments results as reported in example 6: Proteins obtained from U937 cells incubated with 50 nM FC86 or with the medium for 2 h underwent subtilisin-catalyzed digestion.
Current protocols in chemical biology 2011, 3:163-180]. […] The same DARTS experiments were also performed by incubating glioblastoma cell lines (U87MG) with subtoxic amounts of FC86 and data collected confirmed the 14-3-3 as target protein. (FIG. 5).
The identification of putative targets of FC86 was achieved by Drug Affinity Responsive Target Stability (DARTS) experiments. Cancer cells were incubated with a sub-toxic concentration (50 nM for U937 and 5 μM for U87MG) of FC86 for 2 h or with the medium (control cells). After the treatments, treated and control cells were collected and whole protein extracts were prepared by lysing cells in 20 mM Tris-HCl (pH 7.5), 150 mM NaCl, 1 mM EDTA, 1 mM EGTA, 1% NP-40, 1% sodium deoxycholate, 2.5 mM sodium pyrophosphate, 1 mM β-glycerophosphate, 1 mM Na3VO4, 1 μg/ml leupeptin. Protein concentration was determined by the Bradford protein assay using bovine serum albumin as standard. […] Parameters sets were: trypsin cleavage; carbamidomethylation of cysteine as a fixed modification and methionine oxidation as a variable modification; a maximum of two missed cleavages; false discovery rate (FDR), calculated by searching the decoy database, 0.05. […]

[11] = system: CYP450 (CYP1A2, CYP2C9, CYP2C19, CYP2D6, CYP3A4); experiment: CYP450 inhibition (ADME-TOX profiling); format: in vitro ADME; conditions: 10 μM
Method: To assess the ADME-TOX profile of selected compounds (FC91, FC86, FC85, a full panel of in vitro assays was performed as reported in Runfola et al. [Runfola M, Sestito S, Gul S, Chiellini G, Rapposelli S: Collecting data through high throughput in vitro early toxicity and off-target liability assays to rapidly identify limitations of novel thyromimetics. Data in brief 2020, 29:105206.]. Cytotoxic effects were evaluated on 4 different cell lines (U2OS, hTERT, HEK293, MCF-7) at 24 h and 48 h after treatment with tested compounds. Cardiac toxicity was assessed evaluating the inhibition effect of compounds on the hERG ion-channel, which is responsible of the withdrawn of several drugs in clinical trials. Metabolic interference was evaluated testing inhibitory effects of new compounds on five isoforms of CYP450 (CYP1A2, CYP2C9, CYP2C19, CYP2D6, CYP3A4). To assess off-target liabilities, the inhibitory effects have been assessed against several well-known off-targets. In particular, HDAC4, HDAC6, HDAC8, HDAC9, and SIRT7 were chosen as representatives of an undesirable epigenetic modulation. Moreover, compounds were screened against phosphodiesterase (PDE4C1), known for its role in cell survival and tumorigenesis. […] The data were collected and analyzed in the form of a traffic-light system using criteria shown below.

Cc1ccc(S(=O)(=O)Nc2ccc3c(c2)/C(=C/c2cccs2)C(=O)N3)cc1 [FC86, N-[(3Z)-2-oxo-3-(thiophene-2-ylmethylidene)-2,3-dihydro-1H-indol-5-yl]-4-methylbenzenesulfonamide]
IC50 [1]: 0.015 µM | IC50 [2]: 0.025 µM | IC50 [3]: 0.01 µM | IC50 [4]: 0.025 µM | IC50 [5]: 0.025 µM | IC50 [6]: 0.02 µM | IC50 [7]: 0.02 µM | IC50 [8]: 0.025 µM | IC50 ([9]; B-cell, read-out: IC50 in all eight lymphoma cell lines): < 1 µM | IC50 in eight different lymphoma cell lines ([9]; eight different lymphoma cell lines): nanomolar range | resistance of 14-3-3 to subtilisin proteolysis (DARTS) [10]: significant protection from proteolysis; also recorded: significant increment of resistance to proteolysis | inhibitory effect on CYP450 isoforms [11]: did not show inhibitory effect
